Results taken from US12344616B2, “Factor XIa inhibitors” (Merck Sharp & Dohme LLC, priority 2018, dated 2025).

Experiments:
[1] = target: Human plasma kallikrein (Homo sapiens (Human), UniProt P03952); assay: Kallikrein assay (plasma kallikrein, pKal); format: biochemical; settings: purified Human plasma kallikrein 0.5 nM, Acetyl-K-P-R-AFC substrate
Procedure: The effectiveness of a compound of the present invention as an inhibitor of Kallikrein can be determined using a relevant purified serine protease, and an appropriate synthetic substrate. The rate of hydrolysis of the chromogenic or fluorogenic substrate by the relevant serine protease was measured both in the absence and presence of compounds of the present invention. Assays were conducted at room temperature or at 37° C. […] A decrease in the rate of fluorescence change in the presence of inhibitor is indicative of enzyme inhibition. Such methods are known to one skilled in the art. […] Determinations were made using purified Human plasma kallikrein at a final concentration of 0.5 nM (Enzyme Research Laboratories) and the synthetic substrate, Acetyl-K—P—R-AFC (Sigma #C6608) at a concentration of […].
Activity assays were performed by diluting a stock solution of substrate at least tenfold to a final concentration ≤0.2 Km into a solution containing enzyme or enzyme equilibrated with inhibitor. Times required to achieve equilibration between enzyme and inhibitor were determined in control experiments. The reactions were performed under linear progress curve conditions and fluorescence increase measured at 405 Ex/510 Em nm. Values were converted to percent inhibition of the control reaction (after subtracting 100% Inhibition value). IC50 was determined by inflection point from a four parameter logistic curve fit. Ki was calculated using the Cheng Prusoff equation, Ki=IC50/(1+([S]/Km)).

[2] = target: human tissue kallikrein (Homo sapiens (Human), UniProt P06870); assay: Inhibition of tissue kallikrein enzymatic activity (tKal); format: biochemical; settings: human tissue kallikrein 5 nM, N-acetyl-KPR-AFC substrate, 25° C.
Procedure: Compounds were assayed with human tissue kallikrein (RayBiotech, Cat #228-10996 or Evotec, final concentration 5 nM) in 50 mM HEPES, 150 mM NaCl, 5 mM CaCl2, 0.1% PEG pH 7.4 at 25° C. in a Corning 3575 non-binding surface microplate. Compounds were tested in 10-point dose titrations starting at 166.67 uM with a 3-fold dilution series. Tissue kallikrein enzymatic activity was determined by measuring the rate of cleavage of N-acetyl-KPR-AFC substrate (Sigma, Cat #C6608, final concentration 100 uM) by continuously monitoring the fluorescence at 400/505 nm using a Tecan Safire plate-reader. The initial reaction rates (0 to 20 minutes) were used to determine percent inhibition. The % Inhibition for each data point was recalculated from the RFU/min data and analyzed using the log(inhibitor) vs. response four parameters equation with the GraphPad Prism software.

[3] = Dog screening IV/PO pharmacokinetics; format: in vivo; settings: male, plasma, mean residence time, IV/PO procedure
Procedure: Plasma pharmacokinetic parameters for clearance, volume of distribution, half-life, mean residence time (MRT) and oral bioavailability were determined in dogs from oral administration and IV administration studies. 4 male dogs, typically weighing 8-12 kilograms, were fasted overnight prior to dosing. Compounds were prepared for oral and IV dosing by addition to a vehicle, depending on the dose used. For a typical preparation, 1 mg per mL (IV) or 1.5 mg per mL (oral) of test compound was added to vehicle comprised of 20% dimethyl sulfoxide (DMSO), 60% polyethylene glycol 400 (PEG400) and 20% water. IV formulation was administered to 2 dogs via the saphenous or cephalic vein, and oral dosing was administered to 2 dogs via oral gavage. Blood was collected by the cephalic or jugular vein, typically at predose, 2 min, 8 min, 15 min, 30 min, and 1, 2, 4, 6, 8 and 24 hr postdose for IV, and at predose, 15 min, 30 min, and 1, 2, 4, 6, 8, and 24 hr for oral dosing. Samples were collected in K2EDTA tubes, stored on ice, and centrifuged. Plasma was transferred to a micro titer plate and stored at −70° C. until analysis. Plasma samples were extracted using protein precipitation and analyzed by liquid chromatography separation followed by mass spec detection (LCMS/MS), using a standard curve for each compound. Plasma pharmacokinetic parameters were calculated for IV and oral dosing data by non-compartmental methods. Oral bioavailability was determined as the ratio of the dose-normalized plasma area under the curve (AUC) following oral dosing vs. IV dosing.

[4] = Dog cassette IV pharmacokinetics; format: in vivo; settings: male, plasma, mean residence time, cassette IV procedure
Procedure: Plasma pharmacokinetic parameters for clearance, volume of distribution, half-life, and mean residence time (MRT) were determined in dogs from IV cassette administration studies. 2 male dogs, typically weighing 8-12 kilograms, were fasted overnight prior to dosing. Compounds were prepared for IV dosing by addition to a vehicle, depending on the dose used. For a typical preparation, 1 mg per mL (IV) of up to 5 test compounds were added to vehicle comprised of 20% dimethyl sulfoxide (DMSO), 60% polyethylene glycol 400 (PEG400) and 20% water. IV formulation was administered to 2 dogs via the saphenous or cephalic vein. Blood was collected by the cephalic or jugular vein, typically at predose, 2, 8, 15, 30 min, 1, 2, 4, 6, 8 and 24 hr postdose. Samples were collected in K2EDTA tubes, stored on ice, and centrifuged. Plasma was transferred to a micro titer plate and stored at −70° C. until analysis. Plasma samples were extracted using protein precipitation and analyzed by liquid chromatography separation followed by mass spec detection (LCMS/MS), using a standard curve for each compound. Plasma pharmacokinetic parameters were calculated by non-compartmental methods.

Human plasma kallikrein, sequence (P03952 391-638): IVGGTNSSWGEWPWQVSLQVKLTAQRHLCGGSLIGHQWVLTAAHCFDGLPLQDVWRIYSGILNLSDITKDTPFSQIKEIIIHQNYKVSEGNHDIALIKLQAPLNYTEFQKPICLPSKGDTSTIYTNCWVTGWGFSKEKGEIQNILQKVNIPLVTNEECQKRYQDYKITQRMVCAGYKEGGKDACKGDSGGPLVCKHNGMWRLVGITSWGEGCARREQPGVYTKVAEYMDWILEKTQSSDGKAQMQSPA
Human plasma kallikrein, sequence (P03952 20-390 partner): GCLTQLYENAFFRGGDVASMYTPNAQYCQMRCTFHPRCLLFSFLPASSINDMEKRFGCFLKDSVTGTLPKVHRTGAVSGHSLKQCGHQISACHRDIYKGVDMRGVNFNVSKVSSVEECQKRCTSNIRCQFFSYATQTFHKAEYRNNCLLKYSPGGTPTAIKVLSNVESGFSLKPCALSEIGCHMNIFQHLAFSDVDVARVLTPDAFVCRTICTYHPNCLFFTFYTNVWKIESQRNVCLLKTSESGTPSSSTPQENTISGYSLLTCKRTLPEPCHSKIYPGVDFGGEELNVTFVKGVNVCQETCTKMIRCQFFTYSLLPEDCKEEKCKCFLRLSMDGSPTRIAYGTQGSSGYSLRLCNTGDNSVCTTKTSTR
human tissue kallikrein, sequence (P06870 25-262): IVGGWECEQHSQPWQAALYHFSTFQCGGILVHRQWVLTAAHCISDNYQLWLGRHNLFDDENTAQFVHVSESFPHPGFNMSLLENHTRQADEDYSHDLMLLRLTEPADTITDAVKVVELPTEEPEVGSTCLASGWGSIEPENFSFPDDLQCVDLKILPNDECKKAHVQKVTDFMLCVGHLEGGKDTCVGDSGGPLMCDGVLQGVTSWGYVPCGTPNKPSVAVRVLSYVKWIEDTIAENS

SMILES | IC50 [1] | IC50 [2] | MRT [3] | MRT [4]
COC(=O)Nc1ccc2c(c1)NC(=O)C(C)(C)CCC[C@H](c1ccc(-c3cc(F)ccc3-n3cc(C(F)(F)F)cn3)c[n+]1[O-])c1nc-2c(C)[nH]1 [Example 2, (R.Z)-5-(5-fluoro-2-(4-(trifluoromethyl)-1H-pyrazol-1-yl)phenyl)-2-(2^4-((methoxycarbonyl)amino)-1^5,5,5-trimethyl-4-oxo-1^1H-3-aza-1(4,2)-imidazola-2(1,2)-benzenacyclononaphane-9-yl)pyridine 1-oxide] | 1080 nM | 90000 nM | 11 h | 
COC(=O)Nc1ccc2c(c1)NC(=O)C(C)(C)CCC[C@H](c1ccc(-c3c(-n4cc(C(F)(F)F)cn4)ccc(F)c3F)c[n+]1[O-])c1nc-2c(C)[nH]1 [Example 1, (R,Z)-5-(2,3-difluoro-6-(4-(trifluoromethyl)-1H-pyrazol-1-yl)phenyl)-2-(2^4-((methoxycarbonyl)amino)-1^5,5,5-trimethyl-4-oxo-1^1H-3-aza-1(4,2)-imidazola-2 (1,2)-benzenacyclononaphane-9-yl)pyridine 1-oxide] | 480 nM | > 167000 nM | 10 h | 

Other lines, results leading:

IC50 [1] | IC50 [2] | MRT [3] | MRT [4] | SMILES
371 nM | > 167000 nM | 10 h |  | COC(=O)Nc1ccc2c(c1)NC(=O)C(C)(C)CCC[C@H](c1ccc(-c3cc(F)ccc3-c3cnn(C(F)(F)F)c3)c[n+]1[O-])c1nc-2c(C)[nH]1 [Example 5, (R,Z)-5-(5-fluoro-2-(1-(trifluoromethyl)-1H-pyrazol-4-yl)phenyl)-2-(2^4-((methoxycarbonyl)amino)-1^5,5,5-trimethyl-4-oxo-1^1H-3-aza-1(4,2)-imidazola-2(1,2)-benzenacyclononaphane-9-yl)pyridine 1-oxide]
42 nM | > 167000 nM |  | 10 h | COC(=O)Nc1ccc2c(c1)NC(=O)C(C)(C)CCC[C@H](c1ccc(-c3cc(Cl)ccc3-n3cc(C(F)(F)F)cn3)c[n+]1[O-])c1nc-2c(C)[nH]1 [Example 3]
46 nM | > 167000 nM | 8.7 h |  | COC(=O)Nc1ccc2c(c1)NC(=O)C(C)(C)CCC[C@H](c1ccc(-c3cc(Cl)ccc3-n3cc(C(F)F)cn3)c[n+]1[O-])c1nc-2c(C)[nH]1 [Example 4, (R,Z)-5-(5-chloro-2-(4-(difluoromethyl)-1H-pyrazol-1-yl)phenyl)-2-(2^4-((methoxycarbonyl)amino)-1^5,5,5-trimethyl-4-oxo-1^1H-3-aza-1(4,2)-imidazola-2(1,2)-benzenacyclononaphane-9-yl)pyridine 1-oxide]
443 nM |  | 14.5 h |  | COC(=O)Nc1ccc2c(c1)NC(=O)C(C)(C)CCC[C@H](c1ccc(-c3cc(Cl)cnc3OC(F)F)c[n+]1[O-])c1nc-2c(C)[nH]1 [Example 6, (R,Z)-5′-chloro-2′-(difluoromethoxy)-6-(2^4-((methoxycarbonyl)amino)-1^5,5,5-trimethyl-4-oxo-1^1H-3-aza-1(4,2)-imidazola-2(1,2)-benzenacyclononaphane-9-yl)-[3,3′-bipyridine]1-oxide]
